These results are taken from patent US8859574B2 (IRM LLC, priority 2008, dated 2014).

T1 sequence (P08069 999-1274 limits assumed): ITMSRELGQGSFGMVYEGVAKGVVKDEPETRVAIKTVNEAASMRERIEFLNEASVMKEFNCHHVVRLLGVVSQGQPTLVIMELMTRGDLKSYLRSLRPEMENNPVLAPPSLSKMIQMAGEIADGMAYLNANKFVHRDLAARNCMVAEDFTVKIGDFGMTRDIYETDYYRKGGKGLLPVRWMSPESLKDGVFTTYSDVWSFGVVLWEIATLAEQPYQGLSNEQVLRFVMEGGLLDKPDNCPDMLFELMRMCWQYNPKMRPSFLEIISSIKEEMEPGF

This assay concerns the target T1, IGF-1R Ba/F3 (Homo sapiens, UniProt P08069).
T1 construct: fused on or other part: TEL- (or BCR-) IGF-1R in Ba/F3: the kinase part holds the site
The assay can be described thus: Ba/F3 Cell Viability Inhibition Assay (IGF-1R Ba/F3). The note with it: Tel-TK transformed Ba/F3 cells, 48 hours, Britelite luminescence. It counts as cell-based, murine. The method, boiled down:
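A 48 h compound treatment at 37 °C (3750 cells/well) was followed by Britelite luminescence to measure viability. Cells were Ba/F3 pro-B cells, IL-3-independent via TEL-fused IGF-1R kinase transduction. A logistic fit gave IC50 as 50% viability relative to DMSO control.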
`Cc1cc(Nc2nc(Nc3cc(C)c(C4CCN(C(=O)C5CCNCC5)CC4)cc3F)ncc2Cl)n[nH]1` [Compound 115, (4-(4-(5-chloro-4-(5-methyl-1H-pyrazol-3-ylamino)pyrimidin-2-ylamino)-5-fluoro-2-methylphenyl)piperidin-1-yl)(piperidin-4-yl)methanone] came in with an IC50 of 1570 nM.

In turn, `Cc1cc(Nc2nc(Nc3cc(C)c(C4CCN(Cc5ccncc5)CC4)cc3F)ncc2Cl)n[nH]1` [Compound 288, 5-chloro-N2-(2-fluoro-5-methyl-4-(1-(pyridin-4-ylmethyl)piperidin-4-yl)phenyl)-N4-(5-methyl-1H-pyrazol-3-yl)pyrimidine-2,4-diamine] came in with an IC50 of 93 nM.

In turn, `CCC(C(N)=O)N1CCC(c2cc(C)c(Nc3ncc(Cl)c(Nc4cc(C)[nH]n4)n3)cc2C)CC1` (stereo not drawn) [Compound 185, 2-(4-(4-(5-chloro-4-(5-methyl-1H-pyrazol-3-ylamino)pyrimidin-2-ylamino)-2,5-dimethylphenyl)piperidin-1-yl)butanamide] yielded an IC50 of 9 nM.

In turn, `CCNC(=O)N1CCC(c2cc(C)c(Nc3ncc(Cl)c(Nc4cc(C)[nH]n4)n3)cc2C)CC1` [Compound 71, 4-(4-(5-chloro-4-(5-methyl-1H-pyrazol-3-ylamino)pyrimidin-2-ylamino)-2,5-dimethylphenyl)-N-ethylpiperidine-1-carboxamide] showed an IC50 of 2 nM.

On to `Cc1cc(Nc2nc(Nc3cc(C)c(C4CCN([C@H](C)C(N)=O)CC4)cc3F)ncc2Cl)n[nH]1` [Compound 165, (R)-2-(4-(4-(5-chloro-4-(5-methyl-1H-pyrazol-3-ylamino)pyrimidin-2-ylamino)-5-fluoro-2-methylphenyl)piperidin-1-yl)propanamide], for which inhibition was half-maximal at 38 nM (IC50).

As for `CCc1cc(Nc2nc(Nc3cc(C)c(C4CCN(C5CS(=O)(=O)C5)CC4)cc3F)ncc2Cl)n[nH]1` [Compound 264, 5-Chloro-N2-{4-[1-(1,1-dioxo-1λ6-thietan-3-yl)-piperidin-4-yl]-2-fluoro-5-methyl-phenyl}-N4-(5-ethyl-1H-pyrazol-3-yl)-pyrimidine-2,4-diamine], the half-maximal inhibitory concentration (IC50) worked out at 21 nM.

`Cc1cc(Nc2nc(Nc3cc(C)c(C4CCCCN4C(=O)C4(O)CC4)cc3C)ncc2Cl)n[nH]1` (stereo not drawn) [Compound 193, (2-(4-(5-chloro-4-(5-methyl-1H-pyrazol-3-ylamino)pyrimidin-2-ylamino)-2,5-dimethylphenyl)piperidin-1-yl)(1-hydroxycyclopropyl)methanone]: half-maximal inhibition (IC50) required 76 nM.

Compound `COC(=O)c1cc(Nc2ncc(Cl)c(Nc3cc(C)[nH]n3)n2)c(C)cc1C1CCN(C)CC1` [Compound 287, methyl 5-(5-chloro-4-(5-methyl-1H-pyrazol-3-ylamino)pyrimidin-2-ylamino)-4-methyl-2-(1-methylpiperidin-4-yl)benzoate] came in with a 50% inhibitory concentration (IC50) of 27 nM.

For `Cc1cc(Nc2ncc(Cl)c(N[C@H]3CCCCNC3=O)n2)c(F)cc1C1CCN(C)CC1` (single isomer, unassigned) [Compound 10], half-maximal inhibition (IC50) required 869 nM.

As for `Cc1cc(Nc2nc(Nc3cc(C)c(C4CCN(C(=O)C5CNC5)CC4)cc3F)ncc2Cl)n[nH]1` [Compound 131, Azetidin-3-yl(4-(4-(5-chloro-4-(5-methyl-1H-pyrazol-3-ylamino)pyrimidin-2-ylamino)-5-fluoro-2-methylphenyl)piperidin-1-yl)methanone], 1250 nM corresponded to half-maximal inhibition (IC50).

For `CCNC1(C(=O)N2CCC(c3cc(C)c(Nc4ncc(Cl)c(Nc5cc(C)[nH]n5)n4)cc3C)CC2)CC1` [Compound 170, (4-(4-(5-chloro-4-(5-methyl-1H-pyrazol-3-ylamino)pyrimidin-2-ylamino)-2,5-dimethylphenyl)piperidin-1-yl)(1-(ethylamino)cyclopropyl)methanone], the IC50 amounted to 3 nM.

`CNC1(C(=O)N2CCC(c3cc(C)c(Nc4ncc(Cl)c(Nc5cc(C)[nH]n5)n4)cc3C)CC2)CC1` [Compound 90, (4-(4-(5-chloro-4-(5-methyl-1H-pyrazol-3-ylamino)pyrimidin-2-ylamino)-2,5-dimethylphenyl)piperidin-1-yl)(1-(methylamino)cyclopropyl)methanone]: the IC50 was found to be 5 nM.
